# According to patent US20030073097A1, “TRAF6-regulated IKK activators (TRIKA1 and TRIKA2) and their use as anti-inflammatory targets” (priority 2001, published 2003):
# Peptide text beside a SMILES is read from it. * marks the point of attachment. Cbz = O=C(OCc1ccccc1)*
# What was measured:
# T6RZC stable 293 cells = test: Coumermycin A-induced TRAF6-gyrase B (T6RZC) dimerization in stable 293 cells, IκBα degradation; type: cell-based, human; conditions: 293 cells stably expressing T6RZC; coumermycin A 1 μM
# Experimental: Generation of TRAF6-gyraseB stable cell lines. The TRAF6-gyrase B fusion was constructed by replacing the C-terminal TRAF domain of TRAF6 (residues 1-358) with the N-terminal fragment of bacterial gyrase B (T6RZC). Another chimeric construct contained residues 1-291 of TRAF6 (T6RZ). These chimeras were cloned into the mammalian expression vector pEF-IRES-P (Deng et al., 2000). Following transfection of DNA into 293 cells, stable clones were selected in puromycin (1 μg/ml). To induce the dimerization of TRAF6 and subsequent activation of the JNK and IKK pathways, cells were treated with coumermycin A (1 μM) for different lengths of time, and then cell extracts prepared for further analysis.
# IKK = molecular target: T1, IKK (Homo sapiens, UniProt O14920+O15111); test: In vitro assay for IKK activation by TRAF6 (IκBα phosphorylation); type: biochemical; conditions: inhibitor at 20 μM added to the assay
# T1 construct: IKK complex was purified form HeLa cells or from calf thymus using ATP-Sepharose; endogenous in cells
# Experimental: In vitro Assay for IKK Activation. To detect endogenous IKK activation, cell extracts (5 mg/ml) were incubated with TRAF6 (or, T6RZC, 0.1 μM) together with an ATP regenerating buffer (Chen et al., 1995). After incubation at 30° C. for 1 hour, the reaction was analyzed by immunoblotting with a phospho-IκBα specific antibody. To identify intermediary factors involved in TRAF6-mediated IKK activation, the inventors used a reconstitution assay by adding ^35S-IκBα (0.5 μl) and purified IKK complex (5 nM) to a 5 μl reaction mixture that also contains ATP (2 mM), TRAF6 (0.1 μM), and column fractions (0.5-1 μl). In most IKK activation assays, E1 (0.1 μM) and Ub (0.1 mM) were also added to enhance the reaction, although they can be supplied from the wheat germ extracts used for in vitro translation of IκBα. As an assay for purification of TRIKA1, reaction mixtures also contain 0.5 μg TRIKA2/FrIIa, a fraction eluted from Q-Sepharose with 0.2M NaCl. The reaction was carried out at 30° C. for 1 hour, and then analyzed using a PhosphorImager (Molecular Dynamics) following SDS-PAGE.
# proteasome = conditions: 20 μM; Chen et al., 1995; cited from earlier work
# T1 sequence (O14920 whole entry): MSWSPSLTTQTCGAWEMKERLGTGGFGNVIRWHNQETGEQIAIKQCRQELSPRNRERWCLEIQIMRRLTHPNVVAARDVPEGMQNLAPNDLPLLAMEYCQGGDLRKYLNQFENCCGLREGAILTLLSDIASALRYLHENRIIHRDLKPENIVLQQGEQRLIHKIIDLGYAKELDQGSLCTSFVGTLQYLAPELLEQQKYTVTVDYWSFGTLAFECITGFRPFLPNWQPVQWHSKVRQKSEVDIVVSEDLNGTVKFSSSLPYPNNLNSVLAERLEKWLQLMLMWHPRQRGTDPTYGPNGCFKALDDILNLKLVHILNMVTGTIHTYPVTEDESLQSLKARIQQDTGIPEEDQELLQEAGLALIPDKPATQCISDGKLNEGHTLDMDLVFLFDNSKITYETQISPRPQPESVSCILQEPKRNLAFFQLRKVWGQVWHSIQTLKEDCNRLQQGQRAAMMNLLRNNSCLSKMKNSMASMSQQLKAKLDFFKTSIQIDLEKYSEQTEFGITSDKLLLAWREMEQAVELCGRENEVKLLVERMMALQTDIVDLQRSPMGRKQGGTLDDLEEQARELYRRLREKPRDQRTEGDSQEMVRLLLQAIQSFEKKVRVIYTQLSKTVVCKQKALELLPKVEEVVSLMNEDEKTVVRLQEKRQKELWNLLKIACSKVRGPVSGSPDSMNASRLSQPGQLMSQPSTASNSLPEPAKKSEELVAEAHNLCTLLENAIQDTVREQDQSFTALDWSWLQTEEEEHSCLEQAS
# T1 sequence (O15111 whole entry): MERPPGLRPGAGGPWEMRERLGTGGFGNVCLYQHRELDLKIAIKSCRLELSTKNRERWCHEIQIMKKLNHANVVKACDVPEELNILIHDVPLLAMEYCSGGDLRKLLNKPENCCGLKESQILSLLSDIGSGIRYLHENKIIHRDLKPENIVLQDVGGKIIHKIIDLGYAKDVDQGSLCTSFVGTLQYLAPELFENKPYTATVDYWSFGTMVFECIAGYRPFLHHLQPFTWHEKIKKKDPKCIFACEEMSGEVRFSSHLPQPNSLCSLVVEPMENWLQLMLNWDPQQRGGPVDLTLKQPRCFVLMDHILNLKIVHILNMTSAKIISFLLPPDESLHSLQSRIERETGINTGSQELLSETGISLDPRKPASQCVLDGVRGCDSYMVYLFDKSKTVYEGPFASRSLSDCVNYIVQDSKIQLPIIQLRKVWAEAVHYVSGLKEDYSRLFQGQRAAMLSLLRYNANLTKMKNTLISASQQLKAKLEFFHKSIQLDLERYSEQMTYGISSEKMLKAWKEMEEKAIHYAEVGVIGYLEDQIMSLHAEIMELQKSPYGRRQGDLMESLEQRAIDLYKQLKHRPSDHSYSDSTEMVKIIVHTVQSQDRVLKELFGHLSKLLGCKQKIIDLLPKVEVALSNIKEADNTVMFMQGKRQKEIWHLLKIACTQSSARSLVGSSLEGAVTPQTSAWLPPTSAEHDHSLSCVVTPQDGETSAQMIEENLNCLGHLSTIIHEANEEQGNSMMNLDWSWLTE
# T1 sequence (Q9Y6K9 whole entry partner): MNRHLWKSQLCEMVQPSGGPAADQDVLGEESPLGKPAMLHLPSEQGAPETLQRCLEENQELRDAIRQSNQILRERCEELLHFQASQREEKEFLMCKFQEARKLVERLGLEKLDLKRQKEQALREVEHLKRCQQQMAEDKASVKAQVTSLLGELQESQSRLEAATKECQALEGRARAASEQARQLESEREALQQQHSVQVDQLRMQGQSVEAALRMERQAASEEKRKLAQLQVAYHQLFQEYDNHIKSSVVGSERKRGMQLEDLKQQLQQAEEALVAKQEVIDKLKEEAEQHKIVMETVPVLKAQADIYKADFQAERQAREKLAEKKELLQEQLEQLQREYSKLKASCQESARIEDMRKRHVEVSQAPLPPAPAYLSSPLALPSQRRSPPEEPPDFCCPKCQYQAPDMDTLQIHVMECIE
SMILES,Degradation of IκBα upon addition of the dimerizer (T6RZC stable 293 cells),Inhibition of IKK activation by TRAF6 (IKK),Block of proteasomal activity (proteasome)
CO[C@H]1[C@H](OC(=O)c2ccc(C)[nH]2)[C@H](O)[C@@H](Oc2ccc3c(O)c(NC(=O)c4c[nH]c(C(=O)Nc5c(O)c6ccc(O[C@H]7OC(C)(C)[C@@H](OC)[C@H](OC(=O)c8ccc(C)[nH]8)[C@@H]7O)c(C)c6oc5=O)c4C)c(=O)oc3c2C)OC1(C)C [coumermycin A],rapidly degraded,,
CC(C)C[C@@H](C=O)NC(=O)[C@H](CC(C)C)NC(=O)[C@H](CC(C)C)NC(=O)OCc1ccccc1 [MG132] (Cbz-Leu-Leu-Leu-aldehyde),,No inhibition,completely block
CC(=O)N[C@@H](CSC(=O)[C@]1([C@@H](O)C(C)C)NC(=O)[C@H](C)[C@@H]1O)C(=O)O [lactacystin],,No inhibition,completely block
